Patent US12377092B2, “Polycomb inhibitors and uses thereof” (FONDAZIONE ISTITUTO FIRC DI ONCOLOGIA MOLECOLARE (IFOM), priority 2017, dated 2025)
Read-outs that look alike come from different tables or passages of the source.

How the values were obtained:
Format in all cases: cell-based, mouse
[1] = system: EndMT markers (Klf4, Sca1 and Fsp1); test: RT-PCR of EndMT markers, freshly isolated brain endothelial cells knockout for CCM3; settings: freshly isolated brain endothelial cells CCM3fl/fl+TAT-Cre; PTC209 72 hours from the day after recombination
Description: Brain-derived ECs were isolated from VECPAC/CCM3^fl/fl/R26-Confetti. Brains were processed with two different MiltenyiBiotec kits depending on the age at which the mice were sacrificed: “Adult Brain Dissociation Kit”, for […] 7-days old mice, or “Neural Tissue Dissociation Kit” for less than 7-days old mice. All protocols and data sheet are available at www.milteniyibiotec.com.
Recombination of the loxP-flanked genes was induced by treating cells the day after the first splitting (1:2) with 100 ug/mL TAT-Cre-recombinase for 60 minutes in HyClone™ ADCF-MAb medium (GE Healthcare) without serum followed by 100 uM chloroquine for 30 minutes. The cells were washed with HyClone™ ADCF-MAb medium and cultured with complete medium.
RNA extraction was performed both with (A) RNeasy kits (Promega) or (B) RNAeasy Mini Kit (QIAGEN). The latter allows also the extraction of proteins from the same sample. […] For each sample, the expression level was determined with the comparative threshold cycle (Ct) method, and normalized to the housekeeping genes encoding 18S, glyceraldehyde-3-phosphate dehydrogenase (GAPDH) and hypoxanthine-guanine phosphoribosyltransferase (hprt1). Ct or threshold cycle, represents the PCR cycle at which an increase in reporter fluorescence above a base-line signal can first be detect. […]

CCM3 knock out cells = system: CCM3 knock out cells
Protocol: Cells were seeded 6.3×10^4 cells/cm^2. The day after, PTC209 and UNC1999 were added to the confluent cells. Drugs were left for one or three days depending on the aim of the experiment. Final concentrations used for the two drugs were: 1 uM PTC209 and 5 uM UNC1999.
For immunofluorescence, cells were fixed in three different ways: with 4% PAF in PBS (followed by permeabilization with 0.5% Triton X-100 for 5 minutes); with 1% PAF in triethanolamine pH 7.5, containing 0.1% Triton X-100 and 0.1% NP-40 for 10 minutes at RT or in methanol for 5 minutes at […]. Blocking (1 hour, RT) were performed in PBS containing 2% BSA and 5% donkey serum. Primary (overnight, 4° C.) and secondary (50 minutes, RT) antibodies were incubated in PBS with 2% BSA.
To check the effect of Bmi1 on junctional organisation, both wild type and CCM3 knock out cells were treated with PTC209 with the same experimental conditions described before and subsequently analysed by immunofluorescence. In particular cells were stained for VE-cadherin and PECAM1 (FIG. 7).
Experiment with combined PTC209 and UNC1999 treatments was repeated with the same experimental conditions described before and junction organisation was analysed through VE-cadherin staining and protein expression analysis (FIG. 19).

VE-cadherin and PECAM1 = test: Real time analysis of VE-cadherin and Pecam1 transcripts, CCM1 knock out cells; settings: PTC209
Protocol: RNA extraction was performed both with (A) RNeasy kits (Promega) or (B) RNAeasy Mini Kit (QIAGEN). The latter allows also the extraction of proteins from the same sample. The RNA (500 ng) was reverse transcribed with random hexamers (High Capacity cDNA Archive kits; Applied Biosystems) in a final volume of 30 uL. Reaction were made with a thermocycler (Eppendorf) 10 min at 25° C. followed by 2 hours at 37° C. cDNA (5 ng) was amplified in triplicate in a reaction volume of 15 uL using TaqMan Gene Expression Assays (Applied Biosystems) in a ABI/Prism 7900 HT using a pre PCR step of 10 min at 95° C., followed by 40 cycles of 15 seconds at 95° C. and 60 seconds at 60° C. For each sample, the expression level was determined with the comparative threshold cycle (Ct) method, and normalized to the housekeeping genes encoding 18S, glyceraldehyde-3-phosphate dehydrogenase (GAPDH) and hypoxanthine-guanine phosphoribosyltransferase (hprt1). Ct or threshold cycle, represents the PCR cycle at which an increase in reporter fluorescence above a base-line signal can first be detect.
Also for CCM1 model, the inventors tested the effect of Bmi1 inhibition on junction organisation. […]

How did the “Klf4 expression (RT-PCR)” value [1] turn out when COc1cc(Br)c(Nc2nc(-c3c(C)nc4ncccn34)cs2)c(Br)c1 [PTC209, N-(2,6-dibromo-4-methoxyphenyl)-4-(2-methylimidazo[1,2-a]pyrimidin-3-yl)thiazol-2-amine] was run?
The value was “not downregulated”.

What about the “Sca1 and Fsp1 expression (RT-PCR)” value [1] of the same compound?
The value was “strongly reduced”.

What about the “junctional organisation (VE-cadherin, PECAM1 immunostaining)” value (CCM3 knock out cells; CCM3 knock out cells) of the same compound?
The value was “did not rescue junctional disorganisation”.

What about the “junctional organisation (VE-cadherin, PECAM1 immunostaining)” value (CCM3 knock out cells; wild type cells, CCM3 model) of the same compound?
Its value is “did not disturb junction organisation”.

What about the “VE-cadherin and PECAM1 transcript levels (gene expression analysis)” value (VE-cadherin and PECAM1) of the same compound?
Its value is “did not show any rescue”.
